{"source": "patent US9539252B2", "about": "“Piperazine-substituted benzothiophene derivatives as antipsychotic agents” (OTSUKA PHARMACEUTICAL CO., LTD., priority 2011, dated 2017)", "key": {"[1]": {"experiment": "physchem", "conditions": "oil or lipid, thermodynamic from solid", "method": "(§1) Each of the Example compounds was examined for the solubility in oil (sesame oil, benzyl benzoate).\n(§2) For the specific gravity of an oil, the following values were applied. • sesame oil (specific gravity: 0.914-0.921) • benzyl benzoate (specific gravity: 1.123) • (Method)\n(§3) Example compound is measured in a microtube and an oil (sesame oil, or, benzyl benzoate) in an amount to make the concentration 10 mg/0.1 ml is added. After stirring, the solubility is evaluated by visual observation. When the compound is not dissolved, the mixture is heated, and the solubility is evaluated after cooling."}, "[2]": {"experiment": "Solubility in oil (sesame oil, benzyl benzoate), visual observation", "conditions": "oil or lipid, thermodynamic from solid", "method": "as §1, §2, §3"}}, "data": [{"smiles": "O=C(Cc1ccccc1)OCN1C(=O)CCc2ccc(OCCCCN3CCN(c4cccc5sccc45)CC3)cc21", "note": "[Example 25, phenylacetic acid 7-[4-(4-benzo[b]thiophen-4-ylpiperazin-1-yl)butoxy]-2-oxo-3,4-dihydro-2H-quinolin-1-ylmethyl ester]", "values": [{"measurement": "solubility", "setting": "[1]", "result": "> 100", "unit": "mg/mL"}]}, {"smiles": "O=C(Cc1ccccc1)OCn1c(=O)ccc2ccc(OCCCCN3CCN(c4cccc5sccc45)CC3)cc21", "note": "[Example 26, phenylacetic acid 7-[4-(4-benzo[b]thiophen-4-ylpiperazin-1-yl)butoxy]-2-oxo-2H-quinolin-1-ylmethyl ester]", "values": [{"measurement": "solubility", "setting": "[1]", "result": "> 100", "unit": "mg/mL"}]}, {"smiles": "CCCCCCCCCCOC(=O)OCN1C(=O)CC(C)(C)c2ccc(OCCCCN3CCN(c4cccc5sccc45)CC3)cc21", "note": "[Example 156, carbonic acid 7-[4-(4-benzo[b]thiophen-4-ylpiperazin-1-yl)-butoxy]-4,4-dimethyl-2-oxo-3,4-dihydro-2H-quinolin-1-ylmethyl ester decyl ester]", "values": [{"measurement": "solubility", "setting": "[2]; benzyl benzoate", "result": "> 100", "unit": "mg/mL"}, {"measurement": "solubility", "setting": "[2]; sesame oil", "result": "> 100", "unit": "mg/mL"}]}, {"smiles": "CCCCCCCCCCNC(=O)OCN1C(=O)CC(C)(C)c2ccc(OCCCCN3CCN(c4cccc5sccc45)CC3)cc21", "note": "[Example 158, N-decylcarbamic acid 7-[4-(4-benzo[b]thiophen-4-ylpiperazin-1-yl)-butoxy]-4,4-dimethyl-2-oxo-3,4-dihydro-2H-quinolin-1-ylmethyl ester]", "values": [{"measurement": "solubility", "setting": "[2]; benzyl benzoate", "result": "> 100", "unit": "mg/mL"}, {"measurement": "solubility", "setting": "[2]; sesame oil", "result": "> 100", "unit": "mg/mL"}]}, {"smiles": "COC(=O)OCn1c(=O)ccc2ccc(OCCCCN3CCN(c4cccc5sccc45)CC3)cc21", "note": "[Example 163, carbonic acid 7-[4-(4-benzo[b]thiophen-4-ylpiperazin-1-yl)butoxy]-2-oxo-2H-quinolin-1-ylmethyl ester methyl ester]", "values": [{"measurement": "solubility", "setting": "[2]; benzyl benzoate", "result": "> 100", "unit": "mg/mL"}]}, {"smiles": "CCCOC(=O)OCn1c(=O)ccc2ccc(OCCCCN3CCN(c4cccc5sccc45)CC3)cc21", "note": "[Example 165, carbonic acid 7-[4-(4-benzo[b]thiophen-4-ylpiperazin-1-yl)butoxy]-2-oxo-2H-quinolin-1-ylmethyl ester propyl ester]", "values": [{"measurement": "solubility", "setting": "[2]; benzyl benzoate", "result": "> 100", "unit": "mg/mL"}]}, {"smiles": "CCCCOC(=O)OCn1c(=O)ccc2ccc(OCCCCN3CCN(c4cccc5sccc45)CC3)cc21", "note": "[Example 168, carbonic acid 7-[4-(4-benzo[b]thiophen-4-ylpiperazin-1-yl)butoxy]-2-oxo-2H-quinolin-1-ylmethyl ester butyl ester]", "values": [{"measurement": "solubility", "setting": "[2]; benzyl benzoate", "result": "> 100", "unit": "mg/mL"}]}, {"smiles": "CC(C)COC(=O)OCn1c(=O)ccc2ccc(OCCCCN3CCN(c4cccc5sccc45)CC3)cc21", "note": "[Example 170, carbonic acid 7-[4-(4-benzo[b]thiophen-4-ylpiperazin-1-yl)butoxy]-2-oxo-2H-quinolin-1-ylmethyl ester isobutyl ester]", "values": [{"measurement": "solubility", "setting": "[2]; benzyl benzoate", "result": "> 100", "unit": "mg/mL"}]}, {"smiles": "CCCCCCOC(=O)OCn1c(=O)ccc2ccc(OCCCCN3CCN(c4cccc5sccc45)CC3)cc21", "note": "[Example 175, carbonic acid 7-[4-(4-benzo[b]thiophen-4-ylpiperazin-1-yl)butoxy]-2-oxo-2H-quinolin-1-ylmethyl ester hexyl ester]", "values": [{"measurement": "solubility", "setting": "[2]; benzyl benzoate", "result": "> 100", "unit": "mg/mL"}]}, {"smiles": "CCCCCCCCCOC(=O)OCn1c(=O)ccc2ccc(OCCCCN3CCN(c4cccc5sccc45)CC3)cc21", "note": "[Example 177, carbonic acid 7-[4-(4-benzo[b]thiophen-4-ylpiperazin-1-yl)butoxy]-2-oxo-2H-quinolin-1-ylmethyl ester nonyl ester]", "values": [{"measurement": "solubility", "setting": "[2]; benzyl benzoate", "result": "> 100", "unit": "mg/mL"}, {"measurement": "solubility", "setting": "[2]; sesame oil", "result": "> 100", "unit": "mg/mL"}]}, {"smiles": "CCCCCCCCCCCCCCOC(=O)OCn1c(=O)ccc2ccc(OCCCCN3CCN(c4cccc5sccc45)CC3)cc21", "note": "[Example 179, carbonic acid 7-[4-(4-benzo[b]thiophen-4-ylpiperazin-1-yl)butoxy]-2-oxo-2H-quinolin-1-ylmethyl ester tetradecyl ester]", "values": [{"measurement": "solubility", "setting": "[2]; benzyl benzoate", "result": "> 100", "unit": "mg/mL"}, {"measurement": "solubility", "setting": "[2]; sesame oil", "result": "> 100", "unit": "mg/mL"}]}, {"smiles": "CCCCCCCCCCCCCCCCOC(=O)OCn1c(=O)ccc2ccc(OCCCCN3CCN(c4cccc5sccc45)CC3)cc21", "note": "[Example 180, carbonic acid 7-[4-(4-benzo[b]thiophen-4-ylpiperazin-1-yl)butoxy]-2-oxo-2H-quinolin-1-ylmethyl ester hexadecyl ester]", "values": [{"measurement": "solubility", "setting": "[2]; benzyl benzoate", "result": "> 100", "unit": "mg/mL"}, {"measurement": "solubility", "setting": "[2]; sesame oil", "result": "> 100", "unit": "mg/mL"}]}, {"smiles": "CCCCCCCCCCCC(=O)OCOc1ccc2ccc(OCCCCN3CCN(c4cccc5sccc45)CC3)cc2n1", "note": "[Example 371, 7-[4-(4-benzo[b]thiophen-4-yl-piperazin-1-yl)-butoxy]-quinolin-2-yloxymethyl dodecanoate]", "values": [{"measurement": "solubility", "setting": "[2]; benzyl benzoate", "result": "> 100", "unit": "mg/mL"}]}, {"smiles": "O=C(OCOc1ccc2ccc(OCCCCN3CCN(c4cccc5sccc45)CC3)cc2n1)OC1CCCCC1", "note": "[Example 372, 7-[4-(4-benzo[b]thiophen-4-yl-piperazin-1-yl)-butoxy]-quinolin-2-yloxymethyl cyclohexyl carbonate]", "values": [{"measurement": "solubility", "setting": "[2]; benzyl benzoate", "result": "> 100", "unit": "mg/mL"}]}, {"smiles": "CCCCCCOC(=O)OCOc1ccc2ccc(OCCCCN3CCN(c4cccc5sccc45)CC3)cc2n1", "note": "[Example 373, 7-[4-(4-benzo[b]thiophen-4-yl-piperazin-1-yl)-butoxy]-quinolin-2-yloxymethylhexyl carbonate]", "values": [{"measurement": "solubility", "setting": "[2]; benzyl benzoate", "result": "> 100", "unit": "mg/mL"}, {"measurement": "solubility", "setting": "[2]; sesame oil", "result": "> 100", "unit": "mg/mL"}]}, {"smiles": "CCCCCCCCCCCC(=O)Oc1ccc2ccc(OCCCCN3CCN(c4cccc5sccc45)CC3)cc2n1", "note": "[Example 379, 7-[4-(4-benzo[b]thiophen-4-yl-piperazin-1-yl)-butoxy]-quinolin-2-yl dodecanoate]", "values": [{"measurement": "solubility", "setting": "[2]; benzyl benzoate", "result": "> 100", "unit": "mg/mL"}, {"measurement": "solubility", "setting": "[2]; sesame oil", "result": "> 100", "unit": "mg/mL"}]}, {"smiles": "O=C(Oc1ccc2ccc(OCCCCN3CCN(c4cccc5sccc45)CC3)cc2n1)C1CCCCC1", "note": "[Example 380, 7-[4-(4-benzo[b]thiophen-4-yl-piperazin-1-yl)-butoxy]-quinolin-2-yl cyclohexanecarboxylate]", "values": [{"measurement": "solubility", "setting": "[2]; benzyl benzoate", "result": "> 100", "unit": "mg/mL"}, {"measurement": "solubility", "setting": "[2]; sesame oil", "result": "> 100", "unit": "mg/mL"}]}, {"smiles": "CCCCCCOC(=O)Oc1ccc2ccc(OCCCCN3CCN(c4cccc5sccc45)CC3)cc2n1", "note": "[Example 381, 7-[4-(4-benzo[b]thiophen-4-yl-piperazin-1-yl)-butoxy]-quinolin-2-yl hexyl carbonate]", "values": [{"measurement": "solubility", "setting": "[2]; benzyl benzoate", "result": "> 100", "unit": "mg/mL"}, {"measurement": "solubility", "setting": "[2]; sesame oil", "result": "> 100", "unit": "mg/mL"}]}, {"smiles": "CCN(CC)C(=O)Oc1ccc2ccc(OCCCCN3CCN(c4cccc5sccc45)CC3)cc2n1", "note": "[Example 382, 7-[4-(4-benzo[b]thiophen-4-yl-piperazin-1-yl)-butoxy]-quinolin-2-yl diethylcarbamate]", "values": [{"measurement": "solubility", "setting": "[2]; benzyl benzoate", "result": "> 100", "unit": "mg/mL"}]}, {"smiles": "CCCCCCCCOC(=O)OCn1c(=O)ccc2ccc(OCCCCN3CCN(c4cccc5sccc45)CC3)cc21", "note": "[Example 384, (7-(4-(4-(benzo[b]thiophen-4-yl)piperazin-1-yl)butoxy)-2-oxoquinolin-1(2H)-yl)methyl octyl carbonate]", "values": [{"measurement": "solubility", "setting": "[2]; benzyl benzoate", "result": "> 100", "unit": "mg/mL"}, {"measurement": "solubility", "setting": "[2]; sesame oil", "result": "> 100", "unit": "mg/mL"}]}]}
